Results: the supplement of paper PMC8671470

Test system: myeloid leukemia patient primary cells Pat.10
Assay: cell viability (% survival relative to DMSO control); higher = less cytotoxic
Conditions: 10000 nM; 72 h
Method in brief: (§1)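 Thawed mononuclear cells from AML or CML patients were purified on Ficoll and cultured for 72 h in RPMI 1640 with 10% FBS, at 10,000 cells/well, on 384-well plates carrying 70 pre-printed compounds at 1–10,000 nM in five tenfold steps, in duplicate. Viability came from CellTiter-Glo, normalised against DMSO and against 10 μM proteasome inhibitor. Any area under the curve given was derived from log-logistic curve fits in the drc and PharmacoGx R packages, and these fits had four parameters.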

| Compound | cell viability |
| --- | --- |
| c1ccc2c(c1)SCc1c-2[nH]c2ccccc12 | 42.4% |
| CCC(CC#N)OC(=O)N[C@@H](C)c1cccc(NC(=O)Nc2ccc(-c3cnco3)c(OC)c2)c1 (stereo in doubt) [AVN-944] | 4.94% |
| Oc1ncc(F)c(O)n1 [5-fluorouracil] | 50.5% |
| CN(C)CCNC(=O)c1cccn2c(=O)c3cc4ccccc4cc3nc12 [Bmh-21] | 17.3% |

Test system: myeloid leukemia patient primary cells Pat.15
Assay: as above
Conditions: 1 nM; 72 h
Method in brief: as §1

| Compound | cell viability |
| --- | --- |
| O=C(c1c2ccccc2cc2ccccc12)N1CCC(N2CCC[C@@H](C(=O)N3CCOCC3)C2)CC1 | 93.9% |
| c1ccc2c(c1)SCc1c-2[nH]c2ccccc12 | 94.1% |
| CCC(CC#N)OC(=O)N[C@@H](C)c1cccc(NC(=O)Nc2ccc(-c3cnco3)c(OC)c2)c1 (stereo in doubt) [AVN-944] | 94.9% |
| Oc1ncc(F)c(O)n1 [5-fluorouracil] | 83.4% |
| CN(C)CCNC(=O)c1cccn2c(=O)c3cc4ccccc4cc3nc12 [Bmh-21] | 91.5% |

Same assay, conditions: 10 nM; 72 h

| Compound | cell viability |
| --- | --- |
| O=C(c1c2ccccc2cc2ccccc12)N1CCC(N2CCC[C@@H](C(=O)N3CCOCC3)C2)CC1 | 94.5% |
| c1ccc2c(c1)SCc1c-2[nH]c2ccccc12 | 97.3% |
| CCC(CC#N)OC(=O)N[C@@H](C)c1cccc(NC(=O)Nc2ccc(-c3cnco3)c(OC)c2)c1 (stereo in doubt) [AVN-944] | > 100% |
| Oc1ncc(F)c(O)n1 [5-fluorouracil] | 91.5% |
| CN(C)CCNC(=O)c1cccn2c(=O)c3cc4ccccc4cc3nc12 [Bmh-21] | 99.6% |

Same assay, conditions: 100 nM; 72 h

| Compound | cell viability |
| --- | --- |
| O=C(c1c2ccccc2cc2ccccc12)N1CCC(N2CCC[C@@H](C(=O)N3CCOCC3)C2)CC1 | 84.5% |
| c1ccc2c(c1)SCc1c-2[nH]c2ccccc12 | 89.1% |
| CCC(CC#N)OC(=O)N[C@@H](C)c1cccc(NC(=O)Nc2ccc(-c3cnco3)c(OC)c2)c1 (stereo in doubt) [AVN-944] | 83.3% |
| Oc1ncc(F)c(O)n1 [5-fluorouracil] | 96.7% |
| CN(C)CCNC(=O)c1cccn2c(=O)c3cc4ccccc4cc3nc12 [Bmh-21] | 92.4% |

Same assay, conditions: 1000 nM; 72 h

| Compound | cell viability |
| --- | --- |
| O=C(c1c2ccccc2cc2ccccc12)N1CCC(N2CCC[C@@H](C(=O)N3CCOCC3)C2)CC1 | 71.3% |
| c1ccc2c(c1)SCc1c-2[nH]c2ccccc12 | 59.8% |
| CCC(CC#N)OC(=O)N[C@@H](C)c1cccc(NC(=O)Nc2ccc(-c3cnco3)c(OC)c2)c1 (stereo in doubt) [AVN-944] | 89.7% |
| Oc1ncc(F)c(O)n1 [5-fluorouracil] | 91% |
| CN(C)CCNC(=O)c1cccn2c(=O)c3cc4ccccc4cc3nc12 [Bmh-21] | 0.134% |

Same assay, conditions: 10000 nM; 72 h

| Compound | cell viability |
| --- | --- |
| O=C(c1c2ccccc2cc2ccccc12)N1CCC(N2CCC[C@@H](C(=O)N3CCOCC3)C2)CC1 | 88.6% |
| c1ccc2c(c1)SCc1c-2[nH]c2ccccc12 | 0.46% |
| CCC(CC#N)OC(=O)N[C@@H](C)c1cccc(NC(=O)Nc2ccc(-c3cnco3)c(OC)c2)c1 (stereo in doubt) [AVN-944] | 71.1% |
| Oc1ncc(F)c(O)n1 [5-fluorouracil] | 93.9% |
| CN(C)CCNC(=O)c1cccn2c(=O)c3cc4ccccc4cc3nc12 [Bmh-21] | 0.56% |

Test system: myeloid leukemia patient primary cells Pat.13
Assay: as above
Conditions: 1 nM; 72 h
Method in brief: as §1

| Compound | cell viability |
| --- | --- |
| O=C(c1c2ccccc2cc2ccccc12)N1CCC(N2CCC[C@@H](C(=O)N3CCOCC3)C2)CC1 | 85.6% |
| c1ccc2c(c1)SCc1c-2[nH]c2ccccc12 | 90.5% |
| CCC(CC#N)OC(=O)N[C@@H](C)c1cccc(NC(=O)Nc2ccc(-c3cnco3)c(OC)c2)c1 (stereo in doubt) [AVN-944] | 91.5% |
| Oc1ncc(F)c(O)n1 [5-fluorouracil] | 88.8% |
| CN(C)CCNC(=O)c1cccn2c(=O)c3cc4ccccc4cc3nc12 [Bmh-21] | 87.4% |

Same assay, conditions: 10 nM; 72 h

| Compound | cell viability |
| --- | --- |
| O=C(c1c2ccccc2cc2ccccc12)N1CCC(N2CCC[C@@H](C(=O)N3CCOCC3)C2)CC1 | 89.6% |
| c1ccc2c(c1)SCc1c-2[nH]c2ccccc12 | 72.1% |
| CCC(CC#N)OC(=O)N[C@@H](C)c1cccc(NC(=O)Nc2ccc(-c3cnco3)c(OC)c2)c1 (stereo in doubt) [AVN-944] | 93.1% |
| Oc1ncc(F)c(O)n1 [5-fluorouracil] | 91.2% |
| CN(C)CCNC(=O)c1cccn2c(=O)c3cc4ccccc4cc3nc12 [Bmh-21] | 96.6% |

Same assay, conditions: 100 nM; 72 h

| Compound | cell viability |
| --- | --- |
| O=C(c1c2ccccc2cc2ccccc12)N1CCC(N2CCC[C@@H](C(=O)N3CCOCC3)C2)CC1 | 92.9% |
| c1ccc2c(c1)SCc1c-2[nH]c2ccccc12 | 92.1% |
| CCC(CC#N)OC(=O)N[C@@H](C)c1cccc(NC(=O)Nc2ccc(-c3cnco3)c(OC)c2)c1 (stereo in doubt) [AVN-944] | 90.6% |
| Oc1ncc(F)c(O)n1 [5-fluorouracil] | 90% |
| CN(C)CCNC(=O)c1cccn2c(=O)c3cc4ccccc4cc3nc12 [Bmh-21] | 84.1% |

Same assay, conditions: 1000 nM; 72 h

| Compound | cell viability |
| --- | --- |
| O=C(c1c2ccccc2cc2ccccc12)N1CCC(N2CCC[C@@H](C(=O)N3CCOCC3)C2)CC1 | 62.8% |
| c1ccc2c(c1)SCc1c-2[nH]c2ccccc12 | 61.1% |
| CCC(CC#N)OC(=O)N[C@@H](C)c1cccc(NC(=O)Nc2ccc(-c3cnco3)c(OC)c2)c1 (stereo in doubt) [AVN-944] | 63.4% |
| Oc1ncc(F)c(O)n1 [5-fluorouracil] | 72.7% |
| CN(C)CCNC(=O)c1cccn2c(=O)c3cc4ccccc4cc3nc12 [Bmh-21] | 19.7% |

Same assay, conditions: 10000 nM; 72 h

| Compound | cell viability |
| --- | --- |
| O=C(c1c2ccccc2cc2ccccc12)N1CCC(N2CCC[C@@H](C(=O)N3CCOCC3)C2)CC1 | 86.7% |
| c1ccc2c(c1)SCc1c-2[nH]c2ccccc12 | 22.6% |
| CCC(CC#N)OC(=O)N[C@@H](C)c1cccc(NC(=O)Nc2ccc(-c3cnco3)c(OC)c2)c1 (stereo in doubt) [AVN-944] | 36.5% |
| Oc1ncc(F)c(O)n1 [5-fluorouracil] | 81% |
| CN(C)CCNC(=O)c1cccn2c(=O)c3cc4ccccc4cc3nc12 [Bmh-21] | 1.27% |

Test system: myeloid leukemia patient primary cells Pat.7
Assay: as above
Conditions: 1 nM; 72 h
Method in brief: as §1

| Compound | cell viability |
| --- | --- |
| O=C(c1c2ccccc2cc2ccccc12)N1CCC(N2CCC[C@@H](C(=O)N3CCOCC3)C2)CC1 | 94.1% |
| c1ccc2c(c1)SCc1c-2[nH]c2ccccc12 | > 100% |
| CCC(CC#N)OC(=O)N[C@@H](C)c1cccc(NC(=O)Nc2ccc(-c3cnco3)c(OC)c2)c1 (stereo in doubt) [AVN-944] | 98.1% |
| Oc1ncc(F)c(O)n1 [5-fluorouracil] | 89.7% |
| CN(C)CCNC(=O)c1cccn2c(=O)c3cc4ccccc4cc3nc12 [Bmh-21] | 59.2% |

Same assay, conditions: 10 nM; 72 h

| Compound | cell viability |
| --- | --- |
| O=C(c1c2ccccc2cc2ccccc12)N1CCC(N2CCC[C@@H](C(=O)N3CCOCC3)C2)CC1 | 87.2% |
